Columns and labels:
[1] = system: SW-620; assay: Inhibition of human colon carcinoma SW-620 cell proliferation; assay type: functional, cell-based
[2] = target: Proto-oncogene tyrosine-protein kinase Src (Gallus gallus, UniProt P00523); assay: Ability to prevent phosphorylation of avian c-Src TK
[3] = system: HT-29; assay: Inhibition of human colon carcinoma HT-29 cell proliferation; assay type: functional, cell-based
[4] = system: C6; assay: Inhibition of C-6 rat glioma cell proliferation; assay type: functional, cell-based
[5] = system: HCT-8; assay: Inhibition of human colon carcinoma HCT-8 cell proliferation; assay type: functional, cell-based
[6] = target: T1, Platelet-derived growth factor receptor (PDGFr) (Rattus norvegicus, UniProt P20786+Q05030); assay: (§1) Inhibition of PDGF receptor autophosphorylation in rat aortic vascular smooth muscle cells; assay type: functional
[7] = target: T1, Platelet-derived growth factor receptor (PDGFr); assay: as §1
[8] = Inhibition of MEK1/ERK (MAP Kinase kinase) in cascade assay
[9] = target: Protein kinase C (PKC); assay: Inhibition of protein kinase C; assay type: protein assay
[10] = target: Cyclin-dependent kinase 4 (Homo sapiens, UniProt P11802); assay: Inhibition of cyclin dependent kinase 4 (CDK4)
Sequence of Cyclin-dependent kinase 4 (P11802 whole entry): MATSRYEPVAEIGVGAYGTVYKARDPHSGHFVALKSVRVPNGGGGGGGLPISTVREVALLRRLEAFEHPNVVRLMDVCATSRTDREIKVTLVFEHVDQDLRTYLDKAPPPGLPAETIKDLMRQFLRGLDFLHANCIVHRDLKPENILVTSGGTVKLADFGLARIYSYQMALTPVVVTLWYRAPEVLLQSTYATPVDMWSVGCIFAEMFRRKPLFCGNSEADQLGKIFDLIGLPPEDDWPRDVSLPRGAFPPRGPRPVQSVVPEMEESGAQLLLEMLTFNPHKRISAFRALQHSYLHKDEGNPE

[11] = target: Insulin receptor (Homo sapiens, UniProt P06213); assay: Inhibition of insulin receptor kinase
Sequence of Insulin receptor (P06213 28-758 limits assumed): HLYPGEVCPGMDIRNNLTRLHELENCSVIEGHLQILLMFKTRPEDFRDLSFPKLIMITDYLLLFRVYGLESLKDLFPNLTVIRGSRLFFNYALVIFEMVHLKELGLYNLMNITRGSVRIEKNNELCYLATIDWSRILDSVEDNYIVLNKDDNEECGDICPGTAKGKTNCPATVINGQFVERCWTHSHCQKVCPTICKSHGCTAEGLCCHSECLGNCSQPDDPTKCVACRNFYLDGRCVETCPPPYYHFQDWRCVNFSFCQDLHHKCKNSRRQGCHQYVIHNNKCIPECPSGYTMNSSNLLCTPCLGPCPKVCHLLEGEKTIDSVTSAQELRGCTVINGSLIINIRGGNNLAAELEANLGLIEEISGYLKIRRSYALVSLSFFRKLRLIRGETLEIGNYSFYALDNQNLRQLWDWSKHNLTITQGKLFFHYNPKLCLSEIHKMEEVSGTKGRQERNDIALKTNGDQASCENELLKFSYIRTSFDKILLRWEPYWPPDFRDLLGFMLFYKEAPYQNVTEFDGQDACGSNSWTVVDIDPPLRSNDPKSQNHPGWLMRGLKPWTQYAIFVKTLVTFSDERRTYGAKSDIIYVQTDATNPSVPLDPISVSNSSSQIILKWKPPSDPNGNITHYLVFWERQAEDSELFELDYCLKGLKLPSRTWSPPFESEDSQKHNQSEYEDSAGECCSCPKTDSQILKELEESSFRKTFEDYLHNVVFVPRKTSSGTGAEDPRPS
Sequence of Insulin receptor (P06213 763-1382 limits assumed): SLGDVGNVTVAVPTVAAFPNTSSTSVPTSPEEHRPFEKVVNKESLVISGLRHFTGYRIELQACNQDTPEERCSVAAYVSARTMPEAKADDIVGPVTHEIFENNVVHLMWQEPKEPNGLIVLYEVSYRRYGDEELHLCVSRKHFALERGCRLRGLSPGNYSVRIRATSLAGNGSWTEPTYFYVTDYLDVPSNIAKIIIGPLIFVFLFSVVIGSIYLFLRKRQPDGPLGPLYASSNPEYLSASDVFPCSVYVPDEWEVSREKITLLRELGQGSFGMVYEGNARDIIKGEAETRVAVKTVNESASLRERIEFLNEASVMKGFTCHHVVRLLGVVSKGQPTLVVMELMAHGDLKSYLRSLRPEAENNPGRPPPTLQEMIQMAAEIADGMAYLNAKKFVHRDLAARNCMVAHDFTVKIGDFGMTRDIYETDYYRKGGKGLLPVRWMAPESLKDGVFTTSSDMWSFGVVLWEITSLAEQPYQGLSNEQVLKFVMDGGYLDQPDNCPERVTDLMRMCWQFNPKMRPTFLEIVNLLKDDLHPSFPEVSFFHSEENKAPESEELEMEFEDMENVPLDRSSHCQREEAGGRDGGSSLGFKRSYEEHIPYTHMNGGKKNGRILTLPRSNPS

| SMILES | IC50 [1] | IC50 [2] | IC50 [3] | IC50 [4] | IC50 [5] | IC50 [6] | IC50 [7] | IC50 [8] | IC50 [9] | IC50 [10] | IC50 [11] |
| --- | --- | --- | --- | --- | --- | --- | --- | --- | --- | --- | --- |
| CN1CCN(CCCNc2ncc3cc(-c4c(Cl)cccc4Cl)c(NC(=O)Nc4ccccc4)nc3n2)CC1 | 4.1 µM | 0.015 µM | 1.5 µM | 6.7 µM | 4 µM | 0.37 µM | – | – | – | – | – |
| CCN(CC)CCCCNc1ncc2cc(-c3c(Cl)cccc3Cl)c(NC(=O)Nc3ccccc3)nc2n1 | 2.6 µM | 0.0075 µM | 0.8 µM | 8.1 µM | 3.2 µM | – | 1.2 µM | 5 µM | > 50 µM | > 40 µM | > 50 µM |
